System: UV-induced free radicals in porcine ear skin
Assay: Skin antioxidative protection/retention (SAP/SAR) by ESR spectroscopy in porcine ear skin exposed to UV
Parameters: species or system pig
Text: Freshly excised porcine ear skin is close to human skin that is routinely used as a model for testing the protective efficacy of several topically applied antioxidants against UV-induced free radicals. Porcine skin biopsies obtained from local slaughterhouse (pig skin, 6 month old animals, external lobe of the ears) were used for the experiments. The skin was washed, the subdermal fat was removed and cut into 2×2 cm pieces before the application of test samples on the epidermal layer.
The skin has an intrinsic antioxidant protection potential (enzymatic and non-enzymatic), which can be measured by electron spin resonance (ESR) spectroscopy. If an active test sample applied to the stratum corneum penetrates to deep layers of skin, it increases the skin antioxidative protection (SAP). Labeling skin epidermis and dermis (by soaking skin on dermis side) with a semi-stable test radical (TEMPO, 2,2,6,6-tetramethyl piperidine-N-oxyl) that reacts with free radicals produces signal intensities detected by ESR spectroscopy, which can be quantitatively expressed as percent SAP values to determine the antioxidant activity in skin (epidermis and dermis).
Using SAP values from ESR spectroscopy, skin antioxidative retention (SAR) potential of a test cosmetic formulation can be effectively measured using appropriate radical probes. SAR value indicates the antioxidative activity of the skin after free radical damage (UV radiation), which evaluates the protective effectiveness of topically applied antioxidants/free radical scavengers. In addition to the assessment of antioxidative activity in skin, the SAR value also validates the penetration of the topically applied antioxidants. The SAR values are expressed in percent and are calculated using the following formula: SAR [%]=(SAPUV,Product−SAPUV,Placebo)/(SAPPlacebo−SAPUV,Placebo).
The study was conducted blinded and the operator was supplied with formulations that were coded. Pro-NP™, control NPs, or placebo (mixed at 2% w/w in anhydrous lotion) were applied on the skin (2 mg/cm^2) and allowed to penetrate for definite times (10 minutes, 30 minutes, 4 hours or 18 hours). The skin was then exposed to UV radiation (0.6 MED; Minimal Erythema Dose) to induce free radicals that lead to a decrease in the SAP values up to 59% of the initial value (without UV treatment) of the untreated skin. Irradiation source: UV solar simulator 300 W Oriel (Newport). The irradiances as integrated value over the spectral ranges were E (UVB=280-320)=23.5 W/m^2 and E (UVA=320-400 nm)=180 W/m^2. The maintenance of the SAP values after UV exposure due to the test product is expressed by the SAR values.

Substance: Tocopherol [1% Tocopherol]
- SAR (%) 10 mins (2% w/w in anhydrous lotion, 2 mg/cm^2, 10 mins penetration, UV 0.6 MED): 20%
- SAR (%) 30 mins (30 mins penetration, UV 0.6 MED): 6%
- SAR (%) 4 hrs (4 hrs penetration, UV 0.6 MED): 0%
- SAR (%) 18 hrs (18 hrs penetration, UV 0.6 MED): 0%
- protection after UV (after 10 minutes application): 24%
- protection after UV (after 30 minutes): very weak protection
- increase of the SAP values before UV irradiation with respect to untreated skin (without UV irradiation): 29%

Source: patent US10517934B2, “Compositions and methods for the treatment of photoaging and other conditions” (PRO TRANSIT NANOTHERAPY LLC, priority 2014, dated 2019)
